The results in this text go back to patent publication US11492347B2 (ENYO PHARMA, priority 2018, dated 2022).

The structures appear in SMILES notation.

The test system of one assay is PRXF PC-3M. Nature of the assay: Cytotoxicity, propidium iodide based monolayer assay. The note with it: Homo sapiens, 96 h; PRXF PC-3M prostate adeno carcinoma, four days of treatment, T/C=50%; read-out: Absolute IC50. The class given is cell-based.
The next assay deals with MAXF 401. The assay is described as above. The note with it: Homo sapiens, MAXF401, 96 h; MAXF 401 breast adeno carcinoma, four days of treatment, T/C=50%; read-out: Absolute IC50. In kind it is cell-based.
For another assay, the system named is MMXF L-363. The description is as above. Conditions: Homo sapiens, 96 h; MMXF L-363 multiple myeloma, four days of treatment, T/C=50%; read-out: Absolute IC50. The class given is cell-based.
Another assay has as its system LXFL 1121. The assay is described as above. Conditions: 96 h; LXFL 1121 lung large cell carcinoma, four days of treatment, T/C=50%; read-out: Absolute IC50. As for the experimental part: The cytotoxicity was tested for compounds of the invention on five different cell-lines, namely LXFL 1121, MAXF 401, MMXF L-636, PRXF PC-3M and UXF 1138 which are respectively lung large cell carcinoma, breast adeno carcinoma, multiple myeloma, prostate adeno carcinoma and uterine sarcoma.
A working stock solution of the test compounds was prepared in DMSO at a concentration of 33 mM or 8.25 mM, and small aliquots were stored at −20° C. On each day of an experiment, a frozen aliquot of the working stock solution was thawed and stored at room temperature prior to and during treatment.
All liquid handling steps were performed using the Tecan Freedom EVO 200 platform. First, serial 2-fold dilutions of the 33 mM DMSO working stock solution were done in DMSO. The DMSO dilutions were then diluted 1:22 into cell culture medium in an intermediate dilution plate. Finally, 10 μl taken from the intermediate dilution plate were transferred to 140 μl/well of the final assay plate. Thus, the DMSO serial dilutions were diluted 1:330 with cell culture medium, and the DMSO concentration in the assay was 0.3% v/v.
Cell lines were routinely passaged once or twice weekly and maintained in culture for up to 20 passages. […]
A modified propidium iodide (PI) based monolayer assay was used to assess the anti-cancer activity of the compounds. Briefly, cells were harvested from exponential phase cultures, counted and plated in 96 well flat-bottom microtiter plates at a cell density of 4,000 to 40,000 cells/well dependent on the cell line's growth rate. […] After an incubation period of 1-2 hours at room temperature, fluorescence (FU) was measured using the Enspire Multimode Plate Reader (excitation λ=530 nm, emission k=620 nm) to quantify the amount of attached viable cells.
Drug effects were expressed in terms of the percentage of the fluorescence signal, obtained by comparison of the mean signal in the treated wells with the mean signal of the untreated controls (expressed by the test-versus-control value, T/C−value [%]): […]

The next assay deals with NFκB. In words: NFκB reporter assay, TNFα stimulation of A549 NFκB-NanoLuciferase reporter cells. In kind it is cell-based. Conditions: Homo sapiens, 4 ng/ml TNFα, NanoGlo luciferase assay 6 hours later. The text has this:
Compounds of the present invention have been tested for their capacity to inhibit NFκB.
The NFκB reporter construct was made by cloning 5 NFκB responsive elements upstream of a NanoLuciferase reporter gene flanked by AAVS1 genomic sequences.
NFκB Responsive element fused with NanoLuciferase and SV40 late Poly(A) signal was amplified from pNL3.2-NFκB-Nluc (Promega) using NFKB-NLUC-F and NFKB-NLUC-R primers and inserted by Infusion (TaKaRa) in AAVS1 SA-2A-puro-pA donor plasmid (Hockemeyer et al, Nat Biotechnol. 2009, 27, 851-7) digested by Sal1. pCRISPR AAVS1-T2 expressing a guide RNA (gRNA) to target human AAVS1 (T2 target sequence) was constructed by inserting AAVS1-T2A hybridized primers in pLentiCRISPR v2-blast (Sanjana et al, Nat Methods. 2014, 11, 783-4) digested by Bsmbl.
A549 cells were transfected by the plasmids and puromycine selected for 5 days (1 μg mL-1). Then clones were obtained by limiting dilution and selected to maximize TNF dependent NFκB-NanoLuciferase induction.
The reporter cells were seeded on a 96-well plate for overnight with DMEM including 10% FBS. Test compounds were added at varying concentrations. The cells then were treated with 4 ng/ml TNFα (Peprotech, ref E251) in DMEM+10% FBS. NanoGlo luciferase assay (Promega) was carried out 6 hours later. Luminescence was measured using a Spark 20M spectrofluorimeter (Tecan). Values were normalized to the luminescence measured in untreated cells.
For orientation: A reporter such as luciferase makes a cellular process visible.

By IC50 is commonly meant the concentration needed to halve the response being measured. Take `CC1(C)CCc2sc(NC(=O)c3ccccc3)c(C(=O)O)c21` [Compound #37, 2-Benzamido-4,4-dimethyl-5,6-dihydrocyclopenta[b]thiophene-3-carboxylic acid]: the IC50 in the assay on PRXF PC-3M came to 9.67 µM; in the assay on MAXF 401, 11.3 µM; in the assay on MMXF L-363 it was 13.9 µM; with LXFL 1121 it was 24.7 µM.

A word on the EC50: it is the concentration needed to bring the measured effect to its halfway point. Low values mean greater potency, high ones weaker potency. On to `CC1(C)Cc2c(sc(NC(=O)c3ccc(N4CCOCC4)cc3)c2C(=O)O)C(C)(C)C1` [Compound #36, 5,5,7,7-Tetramethyl-2-[(4-morpholinobenzoyl)amino]-4,6-dihydrobenzothiophene-3-carboxylic acid], for which the IC50 with MMXF L-363 is 1.72 µM. The molecule also displayed an EC50 in the assay with NFκB of 0.2 µM.

As for `COC1CN(c2ccc(C(=O)Nc3sc4c(c3C(=O)O)CC(C)(C)CC4(C)C)cc2)C1` [Compound #58, 2-[[4-(3-Methoxyazetidin-1-yl)benzoyl]amino]-5,5,7,7-tetramethyl-4,6-dihydrobenzothiophene-3-carboxylic acid], the figures for the IC50 with PRXF PC-3M and in the assay on LXFL 1121 were 0.888 µM and 1.77 µM, respectively.
